Entries after “also recorded” stand apart in the source; their conditions may differ.
Legend:
[1] = system: PSNL mice (chronic neuropathic pain model); test: EEG/EMG sleep evaluation in the chronic pain model induced by partial sciatic nerve ligation (PSNL); assay type: in vivo, C57BL/6J mice; conditions: for components of pain-related sleep disturbance (sleep time loss, fragmentation of sleep, daytime sleepiness): mouse model of chronic neuropathic pain, summary statement; for duration of non-REM sleep (sleep fragmentation): 6-hour intervals
PSNL mice = test: von Frey test (paw withdrawal threshold, tactile allodynia); assay type: in vivo; conditions: nor-BNI, naïve or injured (PSNL) animals
sham surgery mice = test: EEG/EMG sleep evaluation in sham surgery mice; assay type: in vivo, C57BL/6J mice
Protocol: Norbinaltorphimine (nor-BNI) was dissolved in 0.9% saline to 10 mg/kg just before injection. C57BL/6J mice received intraperitoneal injection of nor-BNI or vehicle (0.9% saline) 30 minutes before EEG/EMG record at 10 days after partial sciatic nerve ligation (PSNL) surgery (FIG. 2A). CYM-53093 was synthesized as described previously by Guerrero et al. It was dissolved in DMSO, tween and saline at a ratio of 1:1:8. C57BL/6J mice were implanted with a micro-osmotic pump under the skin at 8 days after PSNL surgery and received continuous infusion of CYM-53093 (10 mg/kg/day) or vehicle. Mice had surgical recovery for 1 day after pump implantation followed by EEG/EMG record for 5 days (FIG. 3A).
EEG/EMG recording head-mount implantation was done under 2-5% isoflurane anesthesia, mice were implanted with EEG and EMG electrodes for polysomnographic recordings (Pinnacle Technology, Oregon, USA) as described previously by Ito et al. Recording was done in awake animals after acclimatization using EEG/EMG mouse sleep equipment from Pinnacle Technology. The collected EEG/EMG data were analyzed by software (Sleepsign; Kissei Comtec, Japan). The vigilance of every 5-second epoch was automatically classified into three stages, i.e., wakefulness, REM and non-REM sleep, according to the standard criteria. As a final step, defined sleep-wake stages were examined visually and corrected, if necessary. The vigilance states were assessed as follows: 1) wakefulness was defined by a high EMG amplitude, low EEG amplitude; 2) REM sleep was defined by a low EMG amplitude, low EEG amplitude, and high 0 wave (5.0-10.0 Hz) activity; and 3) non-REM sleep was defined by a low EMG amplitude, high EEG amplitude, and high 8 wave (0.65-4.5 Hz) activity.
To investigate the effect of the long acting KOR antagonist, nor-BNI, on sleep disruption in preclinical model of chronic pain, the percentage of sleep time for 24 hours between the groups administered nor-BNI or vehicle 10 days after partial sciatic nerve ligation (PSNL), and baseline before PSNL surgery were compared (FIG. 2A). The sham groups were also evaluated in the same time series as PSNL groups. […] First, in order to evaluate the sleep-wake cycle of each group, the changes in the percentage of sleep time were examined every two hours. […] Secondly, the percentage of total sleep (FIG. 2D), non-REM sleep (FIG. 2E), and REM sleep (FIG. 2F) were evaluated and time in the light phase and dark phase were evaluated separately. […] Then, duration of awake and non-REM sleep was evaluated at 6-hour intervals (early and late light phase and early and late dark phase), and compared between baseline, sham/vehicle group, PSNL/vehicle group, sham/nor-BNI group, and PSNL/nor-BNI group.

[2] = PSNL, continuous infusion of CYM-53093 10 mg/kg/day, 10 mg/kg/day
[3] = PSNL group, nor-BNI 10 mg/kg i.p.
[4] = sham animals, nor-BNI treated vs vehicle treated

| Structure (SMILES) | fragmentation of non-REM sleep ([1]; PSNL, continuous infusion of CYM-53093 10 mg/kg/day) | sleep time ([1]; PSNL, continuous infusion of CYM-53093 10 mg/kg/day by micro-osmotic pump, 5-day recording, 10 mg/kg/day) | power density of δ wave during non-REM sleep ([1]; PSNL, continuous infusion of CYM-53093 10 mg/kg/day, test day 4, 10 mg/kg/day) | REM sleep [1, 2] | duration of wakefulness at the first half of the dark phase [1, 2] | non-REM sleep [1, 2] | components of pain-related sleep disturbance (sleep time loss, fragmentation of sleep, daytime sleepiness) [1] | REM sleep time [1, 3] | duration of wakefulness during the early half of the dark phase [1, 3] | non-REM sleep time [1, 3] | percentage of total sleep ([1]; PSNL group, nor-BNI 10 mg/kg i.p. 10 days after PSNL, light phase) | duration of non-REM sleep (sleep fragmentation) [1, 3] | duration of non-REM sleep (sleep fragmentation) ([1]; PSNL group, nor-BNI 10 mg/kg i.p., listed as Nor-BNI) | sleep time (percentage of sleep time every two hours) ([1]; PSNL group, nor-BNI 10 mg/kg i.p., vs baseline before PSNL surgery) | power spectrum during non-REM sleep ([1]; nor-BNI 10 mg/kg i.p.) | evoked (mechanical/tactile) allodynia, paw withdrawal threshold (PSNL mice) | percentage of non-REM sleep (sham surgery mice; [4]) | percentage of total sleep (sham surgery mice; [4]) | sleep time (percentage of sleep time every two hours) (sham surgery mice; sham groups, nor-BNI 10 mg/kg i.p.) | REM sleep time (sham surgery mice; sham mice, nor-BNI 10 mg/kg i.p.) |
| --- | --- | --- | --- | --- | --- | --- | --- | --- | --- | --- | --- | --- | --- | --- | --- | --- | --- | --- | --- | --- |
| CCc1cc(F)c2nc(N3CCC(NC4CCOCC4)CC3)c(-c3nc(C)no3)c(C)c2c1 [CYM53093] | normalized fragmentation of non-REM sleep | normalized the reduction of sleep time up until day 4; also recorded: normalized the reduction of sleep time and the effect lasted at least until day 4 | no change in the power density; also recorded: did not change | did not improve REM sleep | improved non-REM sleep, wakefulness during the first part of the dark phase; also recorded: improved short duration of wakefulness at the first half of the dark phase | improved non-REM sleep; also recorded: mainly influenced non-REM sleep | improved several important components of pain-related sleep disturbance |  |  |  |  |  |  |  |  |  |  |  |  |  |
| Oc1ccc2c3c1O[C@H]1c4[nH]c5c(c4C[C@@]4(O)[C@@H](C2)N(CC2CC2)CC[C@]314)C[C@@]1(O)[C@H]2Cc3ccc(O)c4c3[C@@]1(CCN2CC1CC1)[C@H]5O4 [nor-BNI, Norbinaltorphimine] |  |  |  |  |  |  | improved several important components of pain-related sleep disturbance | did not improve REM sleep time | improved the inability to stay awake during the dark (active) time of the day; also recorded: tended to extend this duration somewhat, it was not significant | increased non-REM sleep time | 71.4±1.3% | improved sleep fragmentation in PSNL during non-REM sleep | improved this fragmented sleep by PSNL | normalized the deficit of sleep time of the partial sciatic nerve ligation (PSNL) group to the same as baseline; also recorded: normalized the reduction of sleep time of the PSNL group almost to the same level as baseline | did not change the power spectrum; also recorded: unchanged in both groups | did not alter mechanical allodynia in naïve or injured animals; also recorded: did not influence the evoked allodynia | no significant difference in the percentage of total sleep and non-REM sleep | no significant difference in the percentage of total sleep and non-REM sleep | had no effect in the sham surgery group; also recorded: had no significant effect on sleep time | significantly reduced REM sleep time in sham mice |

— US12564586B2, “Kappa opiod receptor antagonists for treating pain-related sleep disorders” (ARIZONA BOARD OF REGENTS ON BEHALF OF THE UNIVERSITY OF …, priority 2020, dated 2026)
